Calls of active or inactive are those of the source. No cut-off for these calls is given here.
What was measured:
[1] = system: Rattus norvegicus; assay: Anti-hyperuricemic activity against potassium oxonate-induced hyperuricemic Sprague-Dawley rat model assessed as glomerular load of urate measured per body surface area of 0.0311 m2 at 4 mg/kg, po pre-administered via gavage twice daily for 5 times followed by potassium oxonate injection for 1 hrs prior to last dose and measured after 3 hrs; assay type: functional; conditions: time 123 hrs
[2] = Toxicity in Kunming mouse assessed as decrease in serum uric acid level upto 250 mg/kg; assay type: organism-based; conditions: in vivo
[3] = system: Rattus norvegicus; assay: Anti-hyperuricemic activity against potassium oxonate-induced hyperuricemic Sprague-Dawley rat model assessed as clearance of urate measured per body surface area of 0.0311 m2 at 4 mg/kg, po pre-administered via gavage twice daily for 5 times followed by potassium oxonate injection for 1 hrs prior to last dose and measured after 3 hrs; assay type: functional; conditions: time 123 hrs
[4] = system: Rattus norvegicus; assay: Anti-hyperuricemic activity against potassium oxonate-induced hyperuricemic Sprague-Dawley rat model assessed as increase in urinary urate level at 2 mg/kg, po pre-administered via gavage twice daily for 5 times followed by potassium oxonate injection for 1 hrs prior to last dose and measured after 3 hrs relative to control; assay type: functional; conditions: time 123 hrs
[5] = system: Rattus norvegicus; assay: Anti-hyperuricemic activity against potassium oxonate-induced hyperuricemic Sprague-Dawley rat model assessed as ratio of urinary urate to urinary creatinine at 2 mg/kg, po pre-administered via gavage twice daily for 5 times followed by potassium oxonate injection for 1 hrs prior to last dose and measured after 3 hrs; assay type: functional; conditions: time 123 hrs
[6] = system: Rattus norvegicus; assay: Anti-hyperuricemic activity against potassium oxonate-induced hyperuricemic Sprague-Dawley rat model assessed as increase in urinary urate level at 4 mg/kg, po pre-administered via gavage twice daily for 5 times followed by potassium oxonate injection for 1 hrs prior to last dose and measured after 3 hrs relative to control; assay type: functional; conditions: time 123 hrs
[7] = system: Mus musculus; assay: Anti-hyperouricemic activity in uric acid-induced hyperuricemic Kunming mouse model assessed as decrease in serum uric acid level at 2 to 8 mg/kg, IG pre-administered via gavage twice daily for 5 times followed by uric acid injection for 30 mins prior to last dose by phosphotungstic acid method; assay type: functional, organism-based; conditions: dose 2-8 mg/kg, time 5.0 day
[8] = system: Rattus norvegicus; assay: Anti-hyperuricemic activity against potassium oxonate-induced hyperuricemic Sprague-Dawley rat model assessed as serum urea nitrogen level at 1 mg/kg, po pre-administered via gavage twice daily for 5 times followed by potassium oxonate injection for 1 hrs prior to last dose and measured after 3 hrs; assay type: functional; conditions: time 123 hrs
[9] = species on record: Homo sapiens; assay: Inhibition of uricase (unknown origin) using uric acid as substrate at 75 mg/L preincubated with compounds for 15 mins followed by uric acid addition
[10] = biological target: Xanthine dehydrogenase/oxidase (Homo sapiens, UniProt P47989); assay: Inhibition of XOD (unknown origin) using xanthine as substrate assessed as inhibition of uric acid generation at 150 mg/L preincubated for 15 mins followed by xanthine addition and measured by spectrophotometric analysis relative to control
[11] = system: Mus musculus; assay: Anti-hyperuricemic activity against uric acid-induced hyperuricemic Kunming mouse model assessed as decrease in URAT1 protein level in kidney at 2 to 8 mg/kg, pre-administered with uric acid for 3.5 days followed by compound administration via gavage twice a day for seven times by ELISA analysis; assay type: functional, organism-based; conditions: dose 2-8 mg/kg, time 7.0 day
[12] = system: Rattus norvegicus; assay: Anti-hyperuricemic activity against potassium oxonate-induced hyperuricemic Sprague-Dawley rat model assessed as urinary creatinine level at 1 mg/kg, po pre-administered via gavage twice daily for 5 times followed by potassium oxonate injection for 1 hrs prior to last dose and measured after 3 hrs; assay type: functional; conditions: time 123 hrs
[13] = system: Rattus norvegicus; assay: Anti-hyperuricemic activity against potassium oxonate-induced hyperuricemic Sprague-Dawley rat model assessed as fractional excretion of urate at 2 mg/kg, po pre-administered via gavage twice daily for 5 times followed by potassium oxonate injection for 1 hrs prior to last dose and measured after 3 hrs relative to control; assay type: functional; conditions: time 123 hrs
[14] = system: Mus musculus; assay: Hypouricemic activity in potassium oxonate-induced hyperuricemic Kunming mouse model assessed as decrease in serum uric acid level at 4 mg/kg, IG by phosphotungstic acid method; assay type: functional, organism-based; conditions: time <= 6.0 hrs, TDE = time-dependent effect
[15] = system: Rattus norvegicus; assay: Anti-hyperuricemic activity against potassium oxonate-induced hyperuricemic Sprague-Dawley rat model assessed as excretion of urate per volume of glomerular filtration measured per body surface area of 0.0311 m2 at 4 mg/kg, po pre-administered via gavage twice daily for 5 times followed by potassium oxonate injection for 1 hrs prior to last dose and measured after 3 hrs; assay type: functional; conditions: time 123 hrs
[16] = species on record: Homo sapiens; assay: Inhibition of uricase (unknown origin) using uric acid as substrate at 37.5 mg/L preincubated with compounds for 15 mins followed by uric acid addition
[17] = system: Rattus norvegicus; assay: Anti-hyperuricemic activity against potassium oxonate-induced hyperuricemic Sprague-Dawley rat model assessed as serum urea nitrogen level at 4 mg/kg, po pre-administered via gavage twice daily for 5 times followed by potassium oxonate injection for 1 hrs prior to last dose and measured after 3 hrs; assay type: functional; conditions: time 123 hrs
[18] = system: Rattus norvegicus; assay: Anti-hyperuricemic activity against potassium oxonate-induced hyperuricemic Sprague-Dawley rat model assessed as urinary urate level at 4 mg/kg, po pre-administered via gavage twice daily for 5 times followed by potassium oxonate injection for 1 hrs prior to last dose and measured after 3 hrs; assay type: functional; conditions: time 123 hrs
[19] = system: Mus musculus; assay: Hypouricemic activity in potassium oxonate-induced hyperuricemic Kunming mouse model assessed as decrease in serum uric acid level pre-administered intragastrically via gavage twice daily for 5 times followed by potassium oxonate injection for 1 hrs prior to last dose by phosphotungstic acid method; assay type: functional, organism-based; conditions: dose 1-4 mg/kg, time 5.0 day
[20] = system: Mus musculus; assay: Anti-hyperuricemic activity against uric acid-induced hyperuricemic Kunming mouse model assessed as decrease in GLUT9 protein level in kidney at 2 to 8 mg/kg, pre-administered with uric acid for 3.5 days followed by compound administration via gavage twice a day for seven times by ELISA analysis; assay type: functional, organism-based; conditions: dose 2-8 mg/kg, time 7.0 day
[21] = system: Rattus norvegicus; assay: Anti-hyperuricemic activity against potassium oxonate-induced hyperuricemic Sprague-Dawley rat model assessed as urinary urate level at 1 mg/kg, po pre-administered via gavage twice daily for 5 times followed by potassium oxonate injection for 1 hrs prior to last dose and measured after 3 hrs; assay type: functional; conditions: time 123 hrs
[22] = system: Rattus norvegicus; assay: Anti-hyperuricemic activity against potassium oxonate-induced hyperuricemic Sprague-Dawley rat model assessed as ratio of urinary urate to urinary creatinine at 1 mg/kg, po pre-administered via gavage twice daily for 5 times followed by potassium oxonate injection for 1 hrs prior to last dose and measured after 3 hrs; assay type: functional; conditions: time 123 hrs
[23] = system: Rattus norvegicus; assay: Anti-hyperuricemic activity against potassium oxonate-induced hyperuricemic Sprague-Dawley rat model assessed as clearance of creatinine measured per body surface area of 0.0311 m2 at 2 mg/kg, po pre-administered via gavage twice daily for 5 times followed by potassium oxonate injection for 1 hrs prior to last dose and measured after 3 hrs; assay type: functional; conditions: time 123 hrs
[24] = system: Rattus norvegicus; assay: Anti-hyperuricemic activity against potassium oxonate-induced hyperuricemic Sprague-Dawley rat model assessed as clearance of creatinine measured per body surface area of 0.0311 m2 at 4 mg/kg, po pre-administered via gavage twice daily for 5 times followed by potassium oxonate injection for 1 hrs prior to last dose and measured after 3 hrs; assay type: functional; conditions: time 123 hrs
[25] = Acute toxicity in mouse assessed as behavioral changes at 50 g/Kg, IG measured for 14 days; conditions: in vivo, po, 50000 mg/kg, 336 h, time 14 day
[26] = system: Rattus norvegicus; assay: Anti-hyperuricemic activity against potassium oxonate-induced hyperuricemic Sprague-Dawley rat model assessed as serum urate level at 2 mg/kg, po pre-administered via gavage twice daily for 5 times followed by potassium oxonate injection for 1 hrs prior to last dose and measured after 3 hrs; assay type: functional; conditions: time 123 hrs
[27] = system: Rattus norvegicus; assay: Anti-hyperuricemic activity against potassium oxonate-induced hyperuricemic Sprague-Dawley rat model assessed as clearance of creatinine measured per body surface area of 0.0311 m2 at 1 mg/kg, po pre-administered via gavage twice daily for 5 times followed by potassium oxonate injection for 1 hrs prior to last dose and measured after 3 hrs; assay type: functional; conditions: time 123 hrs

Chain of Xanthine dehydrogenase/oxidase (P47989 whole entry): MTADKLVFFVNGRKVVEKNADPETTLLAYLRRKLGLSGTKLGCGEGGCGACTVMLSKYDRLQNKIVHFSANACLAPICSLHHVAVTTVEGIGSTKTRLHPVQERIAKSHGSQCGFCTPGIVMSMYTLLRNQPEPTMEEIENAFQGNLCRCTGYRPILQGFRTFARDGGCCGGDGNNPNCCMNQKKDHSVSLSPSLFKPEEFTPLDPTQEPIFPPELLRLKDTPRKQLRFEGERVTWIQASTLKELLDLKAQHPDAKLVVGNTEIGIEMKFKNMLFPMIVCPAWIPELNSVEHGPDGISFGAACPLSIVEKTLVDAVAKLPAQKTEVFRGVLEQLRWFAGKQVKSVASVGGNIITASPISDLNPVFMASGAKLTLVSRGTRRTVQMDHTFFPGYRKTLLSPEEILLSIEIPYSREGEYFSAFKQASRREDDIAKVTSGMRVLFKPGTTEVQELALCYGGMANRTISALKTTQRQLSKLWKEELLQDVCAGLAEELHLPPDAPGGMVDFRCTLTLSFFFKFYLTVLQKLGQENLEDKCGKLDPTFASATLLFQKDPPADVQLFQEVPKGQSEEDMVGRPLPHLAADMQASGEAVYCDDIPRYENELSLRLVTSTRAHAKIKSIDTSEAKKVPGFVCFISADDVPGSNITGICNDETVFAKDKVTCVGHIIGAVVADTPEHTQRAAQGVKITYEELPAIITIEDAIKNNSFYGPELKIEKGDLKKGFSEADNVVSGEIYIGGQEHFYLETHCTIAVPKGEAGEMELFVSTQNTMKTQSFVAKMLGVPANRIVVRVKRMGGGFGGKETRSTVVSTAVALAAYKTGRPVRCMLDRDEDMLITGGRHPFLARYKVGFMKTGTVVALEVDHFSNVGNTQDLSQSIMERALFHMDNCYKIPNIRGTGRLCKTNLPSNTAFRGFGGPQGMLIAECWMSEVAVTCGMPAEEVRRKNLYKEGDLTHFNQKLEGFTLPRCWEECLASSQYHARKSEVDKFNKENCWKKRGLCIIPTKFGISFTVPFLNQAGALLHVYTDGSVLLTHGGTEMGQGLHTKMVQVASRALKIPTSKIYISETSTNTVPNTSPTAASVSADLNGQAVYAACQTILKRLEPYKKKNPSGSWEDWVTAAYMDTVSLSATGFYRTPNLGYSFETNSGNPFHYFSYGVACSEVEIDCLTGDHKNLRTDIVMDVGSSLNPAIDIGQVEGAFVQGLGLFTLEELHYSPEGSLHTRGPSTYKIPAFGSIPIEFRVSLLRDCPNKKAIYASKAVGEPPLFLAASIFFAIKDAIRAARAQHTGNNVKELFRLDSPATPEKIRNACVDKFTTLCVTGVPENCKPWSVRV

COc1c(O)cc2oc3cc(O)c(CC=C(C)C)c(O)c3c(=O)c2c1CC=C(C)C [MANGOSTIN]
Activity [1]: 3.7 µmol/min
Activity [2]: Non-Toxic
Activity [3]: 14 mL/min
Activity [4]: 42%
Ratio [5]: 3.2
Activity [6]: 46%
Activity [7]: Active
Activity [8]: 10.7 mmol/L
inhibition [9]: 2.6%
inhibition at 150 µg/mL [10]: 1.4%
Activity [11]: inactive
Activity [12]: 0.9 mmol/L
Activity [13]: 77%
Activity [14]: Tde
Activity [15]: 5.3 µmol/L
inhibition [16]: 1.4%
Activity [17]: 10.1 mmol/L
Activity [18]: 2.4 mmol/L
Activity [19]: Dose-Dependent Effect
Activity [20]: Active
Activity [21]: 2.4 mmol/L
Ratio [22]: 2.7
Activity [23]: 15.4 mL/min
Activity [24]: 18.6 mL/min
Activity [25]: Non-Toxic
Activity [26]: 236 µmol/L
Activity [27]: 21.4 mL/min

Source: ChEMBL document CHEMBL5226379, “Hypouricemic Actions of the Pericarp of Mangosteen in Vitro and in Vivo” (J Nat Prod, 2023)
